Assay results reported in US10132816B2, “Measurement of FGF21 as a biomarker of fructose metabolism” (Beth Israel Deaconess Medical Center, Inc., priority 2013, dated 2018).

What was measured:
circulating FGF21 levels = assay: oral fructose load versus oral glucose load, circulating FGF21 in human subjects; format: in vivo; details: two hours after ingestion of 75 grams of fructose, lean healthy subjects
Description: FIGS. 2A-2B show plasma FGF21 levels: FIG. 2A) following ingestion of 75 grams glucose (n=8) and FIG. 2B) Plasma FGF21 levels following ingestion of 75 grams fructose in human subjects (n=10).
To test whether fructose ingestion can acutely regulate circulating FGF21 in human subjects, we compared the effects of administering a 75 gram oral glucose load versus a 75 gram oral fructose load on circulating FGF21 levels in lean healthy subjects. Ingestion of glucose has no effect on FGF21 levels (FIG. 2A and ^14). In contrast, circulating FGF21 levels increase ˜4-fold two hours after ingestion of 75 grams of fructose (FIG. 2B). Thus oral fructose ingestion, but not glucose ingestion acutely and robustly increases circulating FGF21 levels. To our knowledge FGF21 is the only known measurable circulating biomarker that specifically assesses an individual's acute metabolic response to fructose ingestion.

[1] = fructose: at first pass; cited from earlier work
[2] = tested on: hepatic ChREBP-β, ChREBP transcriptional targets and circulating FGF21; assay: mice fed chow, 60% dextrose or 60% fructose diets for 7 weeks: hepatic mRNA expression and circulating FGF21; format: in vivo; details: 7 weeks of 60% diet
Description: FIGS. 1A-1C are bar graphs of hepatic mRNA expression (FIG. 1A, 1B) and circulating (FIG. 1C) FGF21 levels in 15-week-old mice fed chow, 60% dextrose, or 60% fructose diets for 7 weeks, sacrificed in the ad lib fed state. * P<0.05 compared to all other groups. n=5-7 per group.
The FGF21 gene contains a ChREBP binding site in its promoter and exposure of primary hepatocytes to high glucose concentrations increases FGF21 expression in a ChREBP dependent manner^37,38. To determine whether ChREBP might regulate circulating FGF21 levels we fed mice chow, 60% dextrose, or 60% fructose diets. […] Thus, we hypothesized that the increase in circulating FGF21 levels associated with features of the metabolic syndrome might be due to activation of hepatic ChREBP and that fructose consumption might be important for this.

Which results are given for `O=C(CO)[C@@H](O)[C@H](O)[C@H](O)CO` [fructose]?
increase of circulating FGF21 levels (circulating FGF21 levels): ~4 fold; share of an oral load taken up / extracted by the liver [1]: ~100%; circulating FGF21 levels [2]: highest levels; effect of fructose on hepatic ChREBP-β expression relative to that of dextrose [2]: ~3 fold; expression of ChREBP transcriptional targets (Pklr, Fasn, FGF21) in liver [2]: greater increase; hepatic expression of ChREBP-β compared to chow ([2]; ad lib fed state): markedly increases
